# Values quoted from earlier work, collected in patent US20250134887A1, “METHODS OF TREATING PROSTATE CANCER” (AstraZeneca AB, priority 2022, published 2025).
# Test system: patients with mCRPC harboring BRCA1, BRCA2 and ATM mutations
# Settings: disease had progressed on NHA; vs. enzalutamide or abiraterone; cited from earlier work
smiles,measurement,value
"O=C(c1cc(Cc2n[nH]c(=O)c3ccccc23)ccc1F)N1CCN(C(=O)C2CC2)CC1 [olaparib, 4-[(3-{[4-(cyclopropane-carbonyl)piperazine-1-yl]carbonyl}-4-fluorophenyl)methyl]-2H-phthalazin-1-one]",imaging-based progression-free survival and overall survival,imaging-based progression-free survival and overall survival benefits
